In patent US7960373B2, “2-alkoxy-3,4,5-trihydroxyalkylamide-benzothiazepines preparation thereof, compositions containing them and use thereof” (Sanofi-Aventis, priority 2006, dated 2011):

How the values were obtained:
[1] = test system: HCT116 cells; assay: inhibition of cell proliferation of HCT116 cells (14C-thymidine incorporation); type: cell-based; conditions: Homo sapiens, HCT-116, HCT116, 96 hours
Procedure: The antiproliferative activity of the products of the examples of Table 1 was determined by measuring the inhibition of cell proliferation of HCT116 cells. The cells are inoculated in a cell culture medium at a concentration of 10 000 cells per well, in 0.17 mL of medium, and 20 μL of test product, at various concentrations, and 10 μL of thymidine [methyl-14C] (100 μCi/ml—specific activity 47.90 mCi/mmol; NEN Technologies reference NEC568 batch 3550-001) are added, and the cells are then incubated at 37° C. and 5% CO2.
Medium used for the HCT116 cell culturing: DMEM medium 2 mM L-glutamine, 200 IU/ml penicillin, 200 μg/mL streptomycin and 10% (V/V) foetal calf serum (Life Technologies).
After 96 hours, the incorporation of ^14C-thymidine is counted in a 1450 Microbeta Wallac Trilux liquid scintillation counter. The results R are expressed in cpm (counts per minute) and converted to a percentage of growth inhibition GI % by first subtracting the average number of cpm for the wells without B cells and then dividing the number of cpm for the wells of the untreated cells C comprising 20 μL of product dilution medium containing 1% ethanol. (GI %=(R−B)×100/C %).
The IC50 values are calculated by means of equation 205 of the XLFit software (IDBS company, UK) via non-linear regression analysis using the Marquardt algorithm (Donald W. Marquardt, J. Soc. Industry. Appl., vol. 11, No. 2, June, 1963).

[2] = Caco2-TC7 permeability (Papp single point); type: in vitro ADME; conditions: human, Caco-2
[3] = total metabolic stability (% metabolization); type: in vitro ADME; conditions: in mice
Excerpt: This compound has better total metabolic stability (11% metabolization in mice) than the product of Example 20 (99%) described in patent application WO 2006/056 696.

## CO[C@@H](C(=O)N[C@H]1C[S@@+]([O-])c2ccccc2N(Cc2cc(F)cc(F)c2)C1=O)[C@H](O)[C@@H](O)[C@H](O)/C=C/C(C)(C)C [Example 1]
[1]
  IC50: 9 nM

## CO[C@@H](C(=O)N[C@H]1C[S@+]([O-])c2ccccc2N(Cc2cc(F)cc(F)c2)C1=O)[C@H](O)[C@@H](O)[C@H](O)/C=C/C(C)(C)C [Example 2]
[1]
  IC50: 20 nM

## CO[C@@H](C(=O)N[C@H]1CSc2ccccc2N(C)C1=O)[C@H](O)[C@@H](O)[C@H](O)/C=C/C1CCCC1 [Example 9, (2R,3R,4S,5R,6E)-7-cyclopentyl-3,4,5-trihydroxy-2-methoxy-N-[(3R)-5-methyl-4-oxo-2,3,4,5-tetrahydro-1,5-benzothiazepin-3-yl]hept-6-enamide]
[1]
  IC50: 7 nM

## CO[C@@H](C(=O)N[C@H]1CSc2ccccc2N(C)C1=O)[C@H](O)[C@@H](O)[C@H](O)/C=C/C(C)(C)C [Example 4, N-[(3R)-5-methyl-4-oxo-2,3,4,5-tetrahydro-1,5-benzothiazepin-3-yl]-(6E)-(2R,3R,4S,5R)-3,4,5-trihydroxy-2-methoxy-8,8-dimethylnon-6-enamide]
[1]
  IC50: 19 nM

## CO[C@@H](C(=O)N[C@H]1CSc2c(Cl)cc(C(F)(F)F)cc2NC1=O)[C@H](O)[C@@H](O)[C@H](O)/C=C/C(C)(C)C [Example 5, N-((3R)-9-chloro-4-oxo-7-trifluoromethyl-2,3,4,5-tetrahydro-1,5-benzothiazepin-3-yl)-(6E)-(2R,3R,4S,5R)-3,4,5-trihydroxy-2-methoxy-8,8-dimethylnon-6-enamide]
[2]
  Papp: 2.3 ×10⁻⁶ cm/s
[3]
  total metabolic stability, % metabolization: 11%
[1]
  IC50: 14 nM

## CO[C@@H](C(=O)N[C@H]1CSc2ccccc2N(Cc2ccccc2)C1=O)[C@H](O)[C@@H](O)[C@H](O)/C=C/C(C)(C)C [Example 3, N-[(3R)-5-benzyl-4-oxo-2,3,4,5-tetrahydro-1,5-benzothiazepin-3-yl]-(6E)-(2R,3R,4S,5R)-3,4,5-trihydroxy-2-methoxy-8,8-dimethyl non-6-enamide]
[1]
  IC50: 10 nM
